Assay results: ChEMBL document CHEMBL4130498, “Synthesis and antibacterial activity of new symmetric polyoxygenated dibenzofurans” (Eur J Med Chem, 2017)
Converted amounts (≈) assume the structure as drawn. Where a name gives a salt, the structure may show the parent alone.

How the values were obtained:
[1] = tested on: Staphylococcus aureus; assay: Antibacterial activity against methicillin-resistant vancomycin-intermediate resistant Staphylococcus aureus NRS402 after 24 hrs by broth microdilution method; assay type: functional; settings: NRS402, 24 h
[2] = tested on: Staphylococcus aureus; assay: Antibacterial activity against methicillin-sensitive Staphylococcus aureus ATCC 25923 after 24 hrs by broth microdilution method; assay type: functional; settings: ATCC 25923, 24 h
[3] = tested on: Enterococcus faecalis; assay: microbe, parasite or virus in culture; assay type: functional; settings: ATCC 29212, 24 h
Description: Antibacterial activity against Enterococcus faecalis ATCC 29212 after 24 hrs by broth microdilution method

[4] = tested on: Saccharomyces cerevisiae; assay: Toxicity in Saccharomyces cerevisiae BY4741 after 24 to 48 hrs by broth microdilution method; assay type: organism-based; settings: in vivo
[5] = tested on: Saccharomyces cerevisiae; assay: Toxicity in Saccharomyces cerevisiae harboring rad52/rad9 deletion mutant after 24 to 48 hrs by broth microdilution method; assay type: organism-based; settings: in vivo
[6] = tested on: Saccharomyces cerevisiae; assay: Toxicity in Saccharomyces cerevisiae harboring mad2 deletion mutant after 24 to 48 hrs by broth microdilution method; assay type: organism-based; settings: in vivo
[7] = tested on: Saccharomyces cerevisiae; assay: Toxicity in Saccharomyces cerevisiae harboring yap1 deletion mutant after 24 to 48 hrs by broth microdilution method; assay type: organism-based; settings: in vivo
[8] = tested on: Saccharomyces cerevisiae; assay: Toxicity in Saccharomyces cerevisiae BY4741 assessed as cell growth at 128 uM after 24 to 48 hrs by broth microdilution method relative to control; assay type: organism-based
[9] = tested on: Saccharomyces cerevisiae; assay: Toxicity in Saccharomyces cerevisiae harboring mad2 deletion mutant assessed as cell growth at 128 uM after 24 to 48 hrs by broth microdilution method relative to control; assay type: organism-based; settings: in vivo
[10] = tested on: Saccharomyces cerevisiae; assay: Toxicity in Saccharomyces cerevisiae harboring yap1 deletion mutant assessed as cell growth at 128 uM after 24 to 48 hrs by broth microdilution method relative to control; assay type: organism-based; settings: in vivo
[11] = tested on: Saccharomyces cerevisiae; assay: Toxicity in Saccharomyces cerevisiae harboring rad52/rad9 deletion mutant assessed as cell growth at 128 uM after 24 to 48 hrs by broth microdilution method relative to control; assay type: organism-based; settings: in vivo

With `Oc1cc(O)c2c(c1)oc1cc(O)cc(O)c12` the MIC [1] was over 128 µM, the MIC [2] was over 128 µM and the MIC [3] was over 128 µM. The MIC [4] was over 128 µM, the MIC [5] was over 128 µM and the MIC [6] was over 128 µM. The MIC [7] was over 128 µM.
With `CCC(C)C(=O)c1c(O)cc(O)cc1O` (stereo not given) the MIC [1] was 32 µM (≈ 6.73 µg/mL), the MIC [2] was 64 µM (≈ 13.5 µg/mL) and the MIC [3] was 64 µM (≈ 13.5 µg/mL). For the same compound, the MIC [4] was over 128 µM, the MIC [5] was over 128 µM and the MIC [6] was over 128 µM. It also gave an MIC [7] of over 128 µM.
In the case of `CCC(C)C(=O)c1c(O)cc(O)c2c1oc1c(C(=O)C(C)CC)c(O)cc(O)c12` (stereo not given), the MIC [1] is reported as 8 µM (≈ 3.2 µg/mL), the MIC [2] is reported as 8 µM (≈ 3.2 µg/mL) and the MIC [3] is reported as 32 µM (≈ 12.8 µg/mL). The MIC [4] was over 128 µM, the MIC [5] was over 128 µM and the MIC [6] was over 128 µM. The MIC [7] was over 128 µM.
`CCC(C)C(=O)c1c(O)cc(O)c(CCC(C)C)c1O` (stereo not given) gave an MIC [1] of 32 µM (≈ 8.97 µg/mL), an MIC [2] of 32 µM (≈ 8.97 µg/mL) and an MIC [3] of 32 µM (≈ 8.97 µg/mL). For the same compound, the MIC [4] was over 128 µM, the MIC [5] was over 128 µM and the MIC [6] was over 128 µM. It also gave an MIC [7] of over 128 µM, an Activity [8] of 20 to 40% and an Activity [9] of 20 to 40%. It also gave an Activity [10] of 20 to 40% and an Activity [11] of 20 to 40%.
With `CCC(C)C(=O)c1c(O)c(CCC(C)C)c(O)c(-c2c(O)c(CCC(C)C)c(O)c(C(=O)C(C)CC)c2O)c1O` (stereo not given) the MIC [1] was 1 µM (≈ 0.559 µg/mL), the MIC [2] was 8 µM (≈ 4.47 µg/mL) and the MIC [3] was 4 µM (≈ 2.23 µg/mL). The MIC [4] was over 128 µM, the MIC [5] was over 128 µM and the MIC [6] was over 128 µM. For the same compound, the MIC [7] was over 128 µM.
Compound `CCCc1c(O)c(C(=O)C(C)CC)c(O)c(-c2c(O)c(CCC)c(O)c(C(=O)C(C)CC)c2O)c1O` (stereo not given) has an MIC [1] of 0.5 µM (≈ 0.251 µg/mL), an MIC [2] of 4 µM (≈ 2.01 µg/mL) and an MIC [3] of 2 µM (≈ 1.01 µg/mL). The MIC [4] was over 128 µM, the MIC [5] was over 128 µM and the MIC [6] was over 128 µM. The MIC [7] was over 128 µM.
With `CCCc1c(O)cc(O)c(C(=O)C(C)CC)c1O` (stereo not given) the MIC [1] was 64 µM (≈ 16.1 µg/mL), the MIC [2] was 64 µM (≈ 16.1 µg/mL) and the MIC [3] was 64 µM (≈ 16.1 µg/mL). For the same compound, the MIC [4] was over 128 µM, the MIC [5] was over 128 µM and the MIC [6] was over 128 µM. It also gave an MIC [7] of over 128 µM, an Activity [8] of 20 to 40% and an Activity [9] of 20 to 40%. The Activity [10] was 20 to 40% and the Activity [11] was 20 to 40%.
`CCCc1c(O)c(C(=O)C(C)CC)c2oc3c(C(=O)C(C)CC)c(O)c(CCC)c(O)c3c2c1O` (stereo not given) gave an MIC [1] of 0.5 µM (≈ 0.242 µg/mL), an MIC [2] of 0.5 µM (≈ 0.242 µg/mL) and an MIC [3] of 0.5 µM (≈ 0.242 µg/mL). It also gave an MIC [4] of over 128 µM, an MIC [5] of over 128 µM and an MIC [6] of over 128 µM. The MIC [7] was over 128 µM.
`Cc1onc(-c2ccccc2)c1C(=O)N[C@@H]1C(=O)N2[C@@H]1SC(C)(C)[C@@H]2C(=O)O` gave an MIC [1] of 150 µM (≈ 60.2 µg/mL), an MIC [2] of at most 0.3 µM and an MIC [3] of 9.5 µM (≈ 3.81 µg/mL).
`CN[C@H](CC(C)C)C(=O)N[C@H]1C(=O)N[C@@H](CC(N)=O)C(=O)N[C@H]2C(=O)N[C@H]3C(=O)N[C@H](C(=O)N[C@H](C(=O)O)c4cc(O)cc(O)c4-c4cc3ccc4O)[C@H](O)c3ccc(c(Cl)c3)Oc3cc2cc(c3O[C@@H]2O[C@H](CO)[C@@H](O)[C@H](O)[C@H]2O[C@H]2C[C@](C)(N)[C@H](O)[C@H](C)O2)Oc2ccc(cc2Cl)[C@H]1O` [VANCOMYCIN HYDROCHLORIDE] was tested, and the MIC [1] was 5.5 µM, the MIC [2] was 0.7 µM and the MIC [3] was 1.4 µM.
